“And” between values parts separate entries of the source, which are not always exact repeats. Equal values may be shown once.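 Test compounds were applied to cells in 96-well plates for 48 hours at 5 doses. GI50 marks 50% less growth. TGI marks complete inhibition of growth.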
Columns and labels:
Experiment in all cases: NCI tumour cell line growth inhibition, 48 h
K-562 leukemia = test system: K-562 leukemia
IGROV1 ovarian = test system: IGROV1 ovarian
M14 melanoma = test system: M14 melanoma
LXFL 529 NSCLC = test system: LXFL 529 NSCLC
CCRF-CEM leukemia = test system: CCRF-CEM leukemia
DMS 273 small cell lung = test system: DMS 273 small cell lung
UACC-257 melanoma = test system: UACC-257 melanoma
KM20L2 colon = test system: KM20L2 colon
PC-3 prostate = test system: PC-3 prostate
T-47D breast = test system: T-47D breast

Structure (SMILES)	TGI (K-562 leukemia)	TGI (IGROV1 ovarian)	TGI (M14 melanoma)	TGI (LXFL 529 NSCLC) [µM]	TGI (CCRF-CEM leukemia)	TGI (DMS 273 small cell lung)	TGI (UACC-257 melanoma)	TGI (KM20L2 colon)	GI50 (K-562 leukemia)	GI50 (IGROV1 ovarian)	GI50 (M14 melanoma)	GI50 (CCRF-CEM leukemia)	GI50 (PC-3 prostate)	TGI (PC-3 prostate)	GI50 (UACC-257 melanoma)	GI50 (T-47D breast)	TGI (T-47D breast)	GI50 (DMS 273 small cell lung) [µM]	GI50 (KM20L2 colon) [µM]
C#CC1(O)CCC2[C@@H]3CCc4cc(Oc5nc(F)nc(-c6c7ccccc7c(SCC)n6CCC)n5)ccc4C3CC[C@@]21C (some centres undefined)	> 100 µM	> 100 µM	> 100 µM	> 100	> 100 µM	> 100 µM	> 100 µM	> 100 µM	–	–	–	–	–	–	–	–	–	–	–
Cc1ccc(S(=O)(=O)OC(COC(=O)c2ccccc2)C(OS(=O)(=O)c2ccc(C)cc2)C(OS(=O)(=O)c2ccc(C)cc2)C(COC(=O)c2ccccc2)OS(=O)(=O)c2ccc(C)cc2)cc1 (centres undefined)	> 100 µM	> 10 µM	> 100 µM	> 100	> 100 µM	> 100 µM	> 100 µM	> 100 µM	–	–	–	–	–	–	–	–	–	–	–
COC(=O)[C@@H](C)[C@H]1CC[C@@](C)(CCC2=C(C)CC3C=C(C)CCC3C2(C)C)OO1 (some centres undefined)	–	3.06 µM	3.13 µM	2.2	0.39 µM	4.43 µM	7.61 µM	3.13 µM	–	–	–	–	–	–	–	–	–	–	–
C1CN(P2(N3CC3)=NP(N3CC3)(N3CC3)=NP(N3CC3)(N3CC3)=N2)CCO1 (centres undefined)	> 100 µM	> 100 µM	> 100 µM	> 100	> 100 µM	> 100 µM	> 100 µM	> 100 µM	–	–	–	–	–	–	–	–	–	–	–
COC(=O)C1CC(OC(C)=O)C=C2C(=O)CCC21 (centres undefined)	29.3 µM	82.6 µM	50.2 µM	39.3	34.4 µM	43.8 µM	37 µM	70.1 µM	–	–	–	–	–	–	–	–	–	–	–
CC(C)(C)N/N=C(\C(=O)Nc1nc(=S)[nH][nH]1)C1C(=O)Nc2ccccc2S1=O (centres undefined)	> 100 µM	> 100 µM	> 100 µM	> 100	> 100 µM	> 100 µM	> 100 µM	> 100 µM	–	–	–	–	–	–	–	–	–	–	–
COc1cc(NS(C)(=O)=O)ccc1NCc1c2ccccc2nc2ccccc12	> 100 µM	> 100 µM	> 100 µM	> 100	33.5 µM	> 100 µM	> 100 µM	> 100 µM	–	–	–	–	–	–	–	–	–	–	–
O=S(=O)(N=NC=C1c2ccccc2N(O)c2ccccc21)c1ccc(Cl)cc1	> 100 µM	> 100 µM	> 100 µM	> 100	> 100 µM	> 100 µM	> 100 µM	> 100 µM	–	–	–	–	–	–	–	–	–	–	–
CCOc1ccc(NCC2CC/C(=C\c3ccccc3OC)C2=O)cc1 (centres undefined)	> 27.5 µM	25.5 µM	12.1 µM	6.5	7.22 µM	6.76 µM	20 µM	28.4 µM	–	–	–	–	–	–	–	–	–	–	–
N#CC(C#N)=Cc1ccc(CP(=O)(O)O)cc1	> 100 µM	> 100 µM	> 100 µM	> 100	> 100 µM	> 100 µM	> 100 µM	> 100 µM	–	–	–	–	–	–	–	–	–	–	–
Cc1cc(C)c(C(=O)O)c(SSc2cc(C)cc(C)c2C(=O)O)c1	> 100 µM	–	–	> 100	> 100 µM	> 100 µM	> 100 µM	> 100 µM	–	–	–	–	–	–	–	–	–	–	–
c1ccc(SC23C4C5C6C4C2C6C53)nc1 (centres undefined)	> 100 µM	> 100 µM	> 100 µM	> 100	> 100 µM	> 100 µM	> 100 µM	> 100 µM	–	–	–	–	–	–	–	–	–	–	–
CC(C)c1cccc(O)c(=O)c1	–	> 75 µg/mL and > 100 µM	> 75 µg/mL and > 57.5 µM	> 100	–	> 48.4 µM	23 µg/mL and 46.6 µM	> 100 µM	2.38 µg/mL	1.6 µg/mL	75 µg/mL	0.312 µg/mL	2.6 µg/mL	> 75 µg/mL	2.33 µg/mL	0.0075 µg/mL	0.0075 µg/mL	–	–
COc1cc(C(C)c2cc3c(cc2OCCNC(=O)COc2cc4c(cc2C(C)c2cc(OC)c(OC)c(OC)c2)OCO4)OCO3)cc(OC)c1OC (centres undefined)	> 100 µM	> 100 µM	> 100 µM	> 100	> 100 µM	> 100 µM	> 100 µM	> 100 µM	–	–	–	–	–	–	–	–	–	–	–
CCCCc1c2cnccc2c(CCCC)c2c1[nH]c1ccccc12	19.9 µM	30.3 µM	41.1 µM	25.6	99 µM	27.9 µM	36 µM	> 100 µM	–	–	–	–	–	–	–	–	–	–	–
Cc1c(N)nc(C(CC(N)=O)NCC(N)C(N)=O)nc1C(=O)NC(C(=O)NC(C)C(O)C(C)C(=O)NC(C(=O)NCCc1nc(-c2nc(C(=O)NCCCNC(C)c3ccccc3)cs2)cs1)C(C)O)C(OC1OC(CO)C(O)C(O)C1OC1OC(CO)C(O)C(OC(N)=O)C1O)c1cnc[nH]1 (centres undefined)	50 µM and > 100 µM	50 µM and > 100 µM	29.6 µM and > 100 µM	50	50 µM and > 100 µM	4.95 µM	50 µM and > 100 µM	50 µM	11.8 µM	8.21 µM	5.13 µM	7.5 µM	38.8 µM	> 100 µM	56.5 µM	23.8 µM	50 µM and > 100 µM	–	–
CCn1c2c(c3ccccc31)[C@@H](c1ccc(Cl)cc1)CC1C(=O)N(c3ccccc3)C(=O)C21 (some centres undefined)	> 100 µM	> 100 µM	> 100 µM	> 100	> 100 µM	> 100 µM	> 100 µM	> 100 µM	–	–	–	–	–	–	–	–	–	–	–
CO[C@H]1C[C@](C)(O)Cc2cc3c(c(O)c21)C(=O)c1c(O)cc2c(c1C3=O)O[C@@H]1O[C@@]2(C)[C@H](O)[C@@H](N(C)C)[C@@H]1O	6.65 µM and 15.7 µM	9.16 µM and 18.7 µM	2.58 µM and 4.49 µM	7.33	1.22 µM and 4.21 µM	2.79 µM and 3.32 µM	7.55 µM and 31.6 µM	5.01 µM and 17.2 µM	–	–	–	0.18 µM	–	15.9 µM	3.78 µM	–	17.4 µM	0.188	1.74
Cc1ccc(S(=O)(=O)c2ccc(C)cc2[N+](=O)[O-])cc1	> 100 µM	> 100 µM	> 100 µM	> 100	> 100 µM	> 100 µM	> 100 µM	> 100 µM	–	–	–	–	–	–	–	–	–	–	–
CCOC(=O)C12C(C(=O)OC)=C(C)N(NC(=O)Nc3ccccc3)C1(N)N(NC(=O)Nc1ccccc1)C(C)=C2C(=O)OC (centres undefined)	> 73.5 µM	> 100 µM	45.6 µM	> 79.5	59 µM	> 72.2 µM	62.9 µM	42.8 µM	–	–	–	–	–	–	–	–	–	–	–
COc1ccc2c(c1)NC1(O)c3ccccc3C(=O)C21O (centres undefined)	> 100 µM	> 100 µM	> 100 µM	> 100	> 100 µM	> 100 µM	> 100 µM	> 100 µM	–	–	–	–	–	–	–	–	–	–	–
CCCN(CCC)C(=O)c1nc(N)nc(-c2ccc(OC)cc2)c1-c1ccc(OC)cc1	> 100 µM	> 100 µM	> 100 µM	> 100	> 100 µM	> 100 µM	> 100 µM	> 100 µM	–	–	–	–	–	–	–	–	–	–	–
C/C(CC(=O)Nc1ccccc1C)=N/NS(=O)(=O)c1ccc(C)cc1	> 100 µM	> 100 µM	> 100 µM	> 100	> 100 µM	> 100 µM	> 100 µM	> 100 µM	–	–	–	–	–	–	–	–	–	–	–
Cc1cccc(C)c1N1C(=O)C(=O)C(c2nc3ccccc3s2)/C(=N/NC(=O)c2ccccc2O)C1=O (centres undefined)	> 57 µM	> 82.2 µM	> 100 µM	> 100	> 65.3 µM	22.5 µM	68.2 µM	> 100 µM	–	–	–	–	–	–	–	–	–	–	–
COC(=O)C(CC(=O)Nc1ccc(Cl)c(Cl)c1)C(=O)C(=O)Nc1ccc(Cl)c(Cl)c1 (centres undefined)	> 100 µM	> 100 µM	> 100 µM	> 100	> 100 µM	> 100 µM	> 100 µM	> 100 µM	–	–	–	–	–	–	–	–	–	–	–

— PubChem BioAssay (NCI)
